Consider one compound from US8552201B2, “5, 6-bisaryl-2-pyridine-carboxamide derivatives, preparation and application thereof in therapeutics as urotensin II receptor antagonists” (Sanofi, priority 2006, dated 2013).

The target of data set [1] is T1, urotensin II receptors (rat aorta rings) (Rattus norvegicus, UniProt P49684).
T1 construct: The aortas are removed, washed and, after removing the endothelium, are cut into 4 rings; from tissue; host or cells: rat thoracic aorta rings, endothelium removed (Sprague-Dawley)
T1 sequence (P49684 1-386): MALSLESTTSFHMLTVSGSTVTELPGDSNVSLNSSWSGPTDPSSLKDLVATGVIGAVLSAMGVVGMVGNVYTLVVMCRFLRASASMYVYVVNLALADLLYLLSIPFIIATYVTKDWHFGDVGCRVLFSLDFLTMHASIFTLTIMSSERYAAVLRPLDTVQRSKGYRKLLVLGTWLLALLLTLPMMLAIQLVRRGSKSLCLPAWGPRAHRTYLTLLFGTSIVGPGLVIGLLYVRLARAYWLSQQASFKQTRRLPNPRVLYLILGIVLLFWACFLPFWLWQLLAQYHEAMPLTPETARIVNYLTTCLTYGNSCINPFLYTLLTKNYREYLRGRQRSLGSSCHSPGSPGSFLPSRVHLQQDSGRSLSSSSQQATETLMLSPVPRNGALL
As to the kind of experiment: Contraction of rat aorta rings induced by human urotensin II. The note with it: endothelium-denuded Sprague-Dawley rat aorta rings, antagonist added 30 min before urotensin II, single concentration. The text has this: (§1) The compounds according to the invention have undergone pharmacological testing for determining the properties of the compounds of the invention, including in particular: • a test in vitro of intracellular calcium mobilization (FlipR test) employing urotensin II antagonists (the compounds of the present invention) of the human GPR14 receptor, • a function test of contraction of rat aorta rings, also employing urotensin II antagonists represented by the compounds of the present invention.
2. Contraction of Rat Aorta
Male Sprague-Dawley rats (400-500 g; C. River, France) are anaesthetized with 6% sodium pentobarbital (Ceva SantéAnimale) by intraperitoneal injection (0.4-0.5 ml), and then euthanized by exsanguination. The aortas are removed, washed and, after removing the endothelium, are cut into 4 rings of about 0.2-0.3 cm. Each fragment is placed in a container for isolated organs, containing 20 mL of Krebs solution with the following composition (mM): NaCl 118; KCl 4.7; MgCl2 1.2; CaCl2 2.6; NaHCO3 25; glucose 11.1; (pH=7.4).
The tissue, maintained at 37° and aerated with a stream of carbogen (95% O2-5% CO2), is connected to a Grass FT03 isometric sensor under a basic strain of 2 g, and to a Gould series 6600 amplifier for recording the variations in strain. Data acquisition is effected automatically on an HP Compaq PC using IOX software (version 2.2) from the company Emka.
After stabilization for 60 min, the viability of the preparation is tested by prestimulation with 60 mM of KCl. This contraction is repeated a second time and the strain that developed will serve as reference (100%) for standardizing the response to urotensin II.
The curve of concentration v. contractile response to urotensin II is then constructed cumulatively until a maximum response is obtained.
A single concentration-response curve is recorded owing to the desensitization effects induced by urotensin II.
The antagonists or the vehicle (DMSO 0.15% maximum) are added to the container 30 min before the agonist.
Human urotensin II is obtained from Bachem Ltd (UK) and is dissolved in 0.1% of BSA.
The responses are expressed as percentage of the maximum contraction observed with KCl. The results represent the mean+/−sem of the individual responses. N corresponds to the number of animals per batch.
Analysis of the sigmoid curves using the Everstat software (De Lean A, Munson P J, Rodbard D., Am J Physiol 1978; 235(2): E97-102.) permitted the EC50 (concentration producing 50% of the maximum response) and the Emax (maximum effect) to be determined.
To evaluate the potency of the antagonists based on a single concentration, the pKb were calculated according to the equation: pKb=−log [antagonist]M+log(concentration-ratio−1) (Furchgott R F, Blaschko H, Muscholl E, editors. Handbook of Exp Pharmacol, Catecholamines, Springer, Berlin Heidelberg N.Y.; 1972; 33:283-335) where concentration-ratio is the EC50 of the agonist in the presence of the antagonist divided by the EC50 of the agonist in the absence of the antagonist.
If several concentrations of antagonist are tested, the pA2 (±confidence limits) is calculated by the Schild plot method (Arunlakshana O and Schild H O, Br J Pharmacol, 1959; 14:48-58).

Data set [2] deals with T2, human GPR14 receptor (Homo sapiens, UniProt Q9UKP6).
T2 construct: expressed in transfected cells; host or cells: CHO cells (CHOGPR14)
T2 sequence (Q9UKP6 1-389): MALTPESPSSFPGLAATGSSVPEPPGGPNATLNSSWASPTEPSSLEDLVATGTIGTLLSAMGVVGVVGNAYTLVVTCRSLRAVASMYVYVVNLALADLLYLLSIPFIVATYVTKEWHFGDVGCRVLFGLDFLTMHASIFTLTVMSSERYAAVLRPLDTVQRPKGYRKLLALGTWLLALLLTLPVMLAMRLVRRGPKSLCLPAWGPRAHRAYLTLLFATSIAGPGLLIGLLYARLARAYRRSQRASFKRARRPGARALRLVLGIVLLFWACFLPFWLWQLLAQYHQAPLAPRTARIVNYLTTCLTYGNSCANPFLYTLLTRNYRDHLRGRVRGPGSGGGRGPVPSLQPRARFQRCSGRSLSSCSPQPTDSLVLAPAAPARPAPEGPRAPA
As to the kind of experiment: FlipR test of intracellular calcium mobilization (CHO GPR14 cells, urotensin II 3 nM). The conditions noted are these: CHOGPR14 cells, inhibition of urotensin II (3 nM final) induced Ca2+ increase, Fluo-4AM. It counts as cell-based.
From the text: as §1
1. FlipR (Fluorometric Imaging Plate Reader) Protocol
The purpose is to measure the activation of the GPR14 receptor by human urotensin II.
GPR14 is a Gq-coupled receptor with 7 transmembrane domains. Its activation by a specific ligand causes an increase in Ca^2+ in the cell via the PLC (Phospholipase C), IP3 (Inositol-1,4,5-triphosphate) DAG (Diacylglycerol) pathway. The increase in Ca^2+ in the cell is measured by means of the Fluo4AM permeating probe (mono-excitation, mono-emission probe) which binds to free Ca^2+ and emits at 520 nm. The free probe is non-fluorescent in the absence of Ca^2+.
1) Seeding of the cells on D−1 (Day−1) or D−2
2) Incorporation/loading (D0) of the probe (1 h)
3) Addition of the products to the FlipR and measurement
4) Addition of the ligand to the FlipR and measurement in the presence of the products
5) Processing and exporting the data
The cells are cultivated in complete medium in Flask T225. For the experiments, the cells are transplanted in 200 μl of culture medium in 96-well (black, transparent-bottom) plates at a rate of 60 000 cells/well for use on D+1 or 40 000 cells/well for use on D+2.
The Fluo-4AM is prepared at 20 mM then aliquots are taken (50 μl) and stored at −20° C. away from the light. A solution of pluronic acid at 200 mg/ml in DMSO is also prepared (it has a shelf life of one week at room temperature away from the light).
The cells are charged with the Fluo-4AM+pluronic acid mixture (aliquot 50 μl+50 μl of pluronic acid) diluted to 1/100 in the measurement buffer.
After washing the wells with 150 μl of measurement buffer (cf. annex), the cells are then charged as follows: • distribution of 100 μl of measurement buffer in each well • addition of 10 μl of the Fluo-4AM+pluronic acid mixture diluted to 1/100.
The cells are incubated for 1 h at 37° C. away from the light, in an incubator in the presence of 5% CO2.
The cells are then washed 3 times with 150 μl of measurement buffer to remove the excess of the probe. A volume of 150 μl of buffer is added to each well at the end of washing.
After incubating the plates for 20 min at room temperature away from the light, they are placed in the FlipR for measurement of fluorescence.
The level of basic incorporation of the Fluo-4 is checked for each plate (sd<10%) before the first injection.
After stabilization of the basic signal, the GPR14 inhibiting compounds are injected by the FlipR under a volume of 50 μl from a dilution plate effected with Biomek 2000 in measurement buffer. […] Data recording is carried out continuously throughout the experiment.
For each plate, the basic fluorescence before injection of the compounds is standardized by the “spatial uniformity correction” function of the FlipR. The values of fluorescence measured just before injection of urotensin II (min) and those of the fluorescence measured at the peak of the effect of urotensin II (max) are exported under Excel. In each plate, a series of wells is treated with urotensin alone in the absence of inhibitor compound. The min and max fluorescence values for these wells are averaged for defining 100% effect of urotensin II. The percentage inhibition calculated for each concentration of inhibitor is calculated as follows: • for each well with Uro II (urotensin II)+inhibitor, calculation of the delta product value=max−min • for the well with Uro II alone, calculation of the value delta Uro II (average max−average min) […]

Each structure is given as a SMILES string. pIC50: −log10 of the molar value.

The term melting point denotes the temperature, or range, at which the solid turns liquid. In general, Kb refers to the equilibrium dissociation constant of an antagonist, usually derived from a functional assay. A word on the pIC50: it is the IC50 on a negative log10 scale, so that one unit is a factor of ten. Turning to `Cc1ccccc1-c1ccc(C(=O)NC2(C(=O)O)CCCCC2)nc1-c1ccc(Cl)c(OCCCN(C)C)c1.Cl` [compound 34, 1-({[6-{4-Chloro-3-[3-(dimethylamino)propoxy]phenyl}-5-(2-methylphenyl)pyridin-2-yl]carbonyl}amino)cyclohexanecarboxylic acid hydrochloride], the melting point lay in the range of 146 to 150 °C. Moreover, in data set [1], the antagonist dissociation constant (Kb) was 79.4 nM. In addition, the pIC50 in data set [2] was 7.60.
